Results on 1 compound are retold here after patent publication US9212359B2, “Systems for induction of gene expression and protein depletion in yeast” (priority 2011, dated 2015).

The assay concerns GEV. Description: β-Galactosidase activity assay, PGAL1-lacZ reporter plasmid pCM64-GAL1 in DBY12100. It counts as cell-based, S. cerevisiae. The note with it: 2 hours incubation, 1 μM or 10 μM DOC. How it is done: Assays were performed essentially as described in (Liu et al., 1999) with minor modifications. 5 mL of cells transformed with pCM64-GAL1 were grown to midlog phase in SC-URA medium at 30° C., then incubated at indicated temperatures for the indicated times with or without (a) 5 μL of ethanol (vehicle control), (b) 2 μL of 2.5 mM β-estradiol (Sigma) dissolved in ethanol (final concentration of 1 μM), (c) 5 μL of 1 mM DOC (deoxycorticosterone; Sigma) dissolved in ethanol (final concentration of 1 μM), or (d) 5 μL of 10 mM DOC dissolved in ethanol (final concentration of 10 μM). Cells (1 mL) were harvested by centrifugation, washed once with sterile H2O, and resuspended in 700 μl of Z buffer (100 mM sodium phosphate, pH 7.0, 10 mM KCl, 1 mM MgSO4, 50 mM β-mercaptoethanol). 50 μl of chloroform and 50 μl of 0.1% SDS were added, and the cell suspension was vortex-mixed at top speed for 30 seconds followed by addition of 200 μl of 4 mg/ml ONPG (ortho-nitrophenyl-β-galactoside; Sigma) was added to each sample and incubated at room temperature until pale yellow color appeared. […] After clarification by centrifugation, the supernatant was diluted, and A420 was measured within the linear response range. Specific β-galactosidase activity was calculated as follows: (A420×1000)/(A600×(volume of cells examined in ml)×(time of incubation in minutes)) and reported in Miller units. […]

Turning to `C[C@]12CC[C@H]3[C@@H](CCC4=CC(=O)CC[C@@]43C)[C@@H]1CC[C@@H]2C(=O)CO` [deoxycorticosterone], the “induction of GEV (lacZ activity)” value was “not induced”.
